# According to PMC12040169 (PLOS Biology, 2025):
# Assay: in vitro
# Conditions: human, hela cells, % viability
row,Compound,"viability at 28.5 h, 10 µM"
1,O=C1CC[C@@H](NCc2cccc(O)c2)[C@H](c2cc(F)cc(F)c2)N1 [CBK282909],98%
2,O=C1CC[C@@H](NCc2ccsc2)[C@H](c2cc(F)cc(F)c2)N1 [CBK282910],102%
3,O=C1CC[C@@H](NCc2ccoc2)[C@H](c2cc(F)cc(F)c2)N1 [CBK282912],96%
4,Cn1cc(CN[C@@H]2CCC(=O)N[C@H]2c2cc(F)cc(F)c2)cn1 [CBK282913],100%
5,Cc1cc(C)c(-n2cccn2)c(CN2CCC(CO)C2)c1 (centres unmarked) [CBK282915],87.1%
6,O=C1NCC2(CCN(C(=O)C3CC3)CC2)Oc2ccccc21 [CBK282918],101%
7,O=C1NCC2(CCN(C(=O)c3ccco3)CC2)Oc2ccccc21 [CBK282919],103%
8,CC(=O)N1c2ccc(C(O)CN3CCCC(C)C3)cc2CC1C (centres unmarked) [CBK282922],96.5%
9,CC(=O)N1CCc2cc(C(O)CN3CCCC4CCCCC43)ccc21 (centres unmarked) [CBK282924],93.6%
10,O=C(c1ccccc1F)N1CCCC1Cn1c(=O)oc2ccccc21 (centres unmarked) [CBK282926],97.5%
11,COc1ccc([C@H]2CN(Cc3ccccc3)C[C@@H]2NC(C)=O)cc1 [CBK282930],92.1%
12,CC(=O)N1CCc2cc(C(=O)CN3CCC(c4ccccc4)C3)ccc21 (centres unmarked) [CBK282931],98%
13,O[C@@H]1CN(Cc2ccccc2F)CC[C@H]1N1CCCC1 [CBK282934],96.9%
14,OCCN(Cc1cccnc1)Cc1cccn1-c1ccccc1Cl [CBK282936],89.7%
15,COc1ccc(C(=O)NC2CCCNC2=O)s1 (centres unmarked) [CBK282938],88.4%
16,Cc1ccc(C(O)CN(C)Cc2c(C)nn(C)c2C)c(C)c1 (centres unmarked) [CBK282939],84.7%
17,CCC(NC(=O)c1ccc(C(C)(C)C)[nH]c1=O)c1ccc(OC)cc1 (centres unmarked) [CBK282940],87.8%
18,CN1CCC(CN(C)CC2CCCN(Cc3ccccc3)C2)C1 (centres unmarked) [CBK282946],90.7%
19,CCCn1ncc(CN[C@@H]2CCC[C@H]2Cc2cc(C)no2)c1C [CBK282948],88.7%
20,Fc1ccccc1CN(CCCn1ccnc1)Cc1ccco1 [CBK282952],109%
21,Cc1c(CN(Cc2cccc(F)c2)CC2CCCO2)cnn1C (centres unmarked) [CBK282953],89.9%
22,OC12CCCCC1CN(CC1=Cc3ccccc3OC1)CC2 (centres unmarked) [CBK282954],86.3%
23,CCn1cc(CN2CCC(O)(c3ccc(C)cc3)CC2)c(C)n1 [CBK282955],89.2%
24,CCn1ncc(CN2CCC(O)(c3ccc(C)cc3)CC2)c1C [CBK282956],90.2%

row,Compound,"viability at 28.5 h, 10 µM"
1,Cc1cc(C)n(CC(O)CN(Cc2ccccc2)Cc2ccco2)n1 (centres unmarked) [CBK282957],95.7%
2,COCCCN(Cc1ccccn1)Cc1c(F)cccc1F [CBK282959],93.5%
3,Cn1cncc1CN(CCCn1ccnc1)Cc1ccccc1F [CBK282960],85%
4,COCCCN(Cc1ccc(F)c(F)c1)Cc1ccccn1 [CBK282961],90.7%
5,Cc1cc(C2CCCCCN2Cc2c(C)nn(C)c2C)on1 (centres unmarked) [CBK282967],99.7%
6,CCC(=O)N1CCC(c2nc(Cc3cccs3)no2)C1 (centres unmarked) [CBK282968],88.5%
7,Cc1cc(C[C@@H]2COC[C@H]2NCc2ccccc2Cl)on1 [CBK282969],94.8%
8,O=C(CCn1cncn1)N[C@H]1C2CCCCC2[C@@H]1c1ccccc1 (some centres unmarked) [CBK282970],100%
9,CCCn1cc(CN2C3CCC2CC(O)(c2ccc(F)cc2)C3)cn1 (centres unmarked) [CBK282971],91.5%
10,CCn1ncc(CN2C3CCC2CC(O)(c2ccc(F)cc2)C3)c1C (centres unmarked) [CBK282973],100%
11,COCCCN(Cc1ccccn1)Cc1ccc(F)cc1F [CBK282974],103%
12,COCCCN(Cc1cc(F)cc(F)c1)Cc1ccccn1 [CBK282975],100%
13,OCC[C@H]1CN2CCCC2CN1Cc1cccn1-c1ccccc1F (some centres unmarked) [CBK282977],93%
14,Cc1cc(C)n(CC(O)CN(Cc2ccco2)Cc2cccs2)n1 (centres unmarked) [CBK282979],100%
15,Cc1cc2ccccc2n1CCCNC(=O)c1ccc(=O)n(C)c1 [CBK282982],104%
16,COc1ccc(CN2CCCC(c3nc(C)n4ccccc34)C2)cc1 (centres unmarked) [CBK282984],94.6%
17,OCC[C@H]1CN2CCCC2CN1Cc1cccn1-c1cccc(F)c1 (some centres unmarked) [CBK282985],86.1%
18,Cn1cncc1CN(CCc1ccccc1)Cc1ccncc1 [CBK282992],87.4%
19,Cc1cc(C[C@@H]2COC[C@H]2NCc2c(F)cccc2Cl)on1 [CBK282994],83.4%
20,OC12CCCCC1CN(Cc1nc3ccccc3[nH]1)CC2 (centres unmarked) [CBK282995],93.9%
21,CC(=O)N1CCC(c2nc(Cc3cccs3)no2)C1 (centres unmarked) [CBK282998],108%
22,Cc1cc(C[C@@H]2COC[C@H]2NCc2cccs2)on1 [CBK282999],95.8%
23,CC(=O)NCC1CCC(C(NC(=O)C2CC2)c2ccccn2)CC1 (centres unmarked) [CBK283000],87.5%
24,O[C@@]1(c2ccccn2)CC[C@H]2CN(Cc3ccccc3F)C[C@H]21 [CBK283001],94.3%

row,Compound,"viability at 28.5 h, 10 µM"
1,CC(=O)OCc1ccc(CN2CCCCCC2c2cc(C)on2)o1 (centres unmarked) [CBK283004],88.2%
2,COc1cccc(CN[C@@H]2CCC[C@H]2Cc2cc(C)no2)c1 [CBK283006],109%
3,Cc1cc(CN(C)Cc2cnn(Cc3ccccc3)c2C)n[nH]1 [CBK283017],94.6%
4,OCCN(Cc1cccnc1)Cc1cccn1-c1cccc(F)c1 [CBK283018],81.5%
5,CN(C)CCN(Cc1nc2ccccc2[nH]1)Cc1cccs1 [CBK283020],85.1%
6,CC(C)N1CCC(N(C)Cc2nc3ccccc3[nH]2)CC1 [CBK283021],105%
7,Cn1cncc1CN1C[C@@H]2CCCN2C[C@@H]1Cc1ccccc1 [CBK283027],91.9%
8,C=CCn1ncc(CN2CCC3(O)CCCCC3C2)c1C (centres unmarked) [CBK283029],100%
9,Fc1ccccc1CN(CCCn1ccnc1)CC1CCOC1 (centres unmarked) [CBK283031],104%
10,Cc1ccsc1CN(Cc1cncn1C)CC(C)O (centres unmarked) [CBK283033],85.7%
11,CCCC(=O)N1CCC(c2nc(Cc3cccs3)no2)C1 (centres unmarked) [CBK283034],88%
12,CCn1cc(CN(CCN(C)C)Cc2cccs2)c(C)n1 [CBK283037],101%
13,CCC1c2ccc(C)n2CCN1Cc1cnc(C)n1C (centres unmarked) [CBK283038],105%
14,Cn1cncc1CN(CCCn1ccnc1)Cc1ccccc1Cl [CBK283041],84.8%
15,OCCN(Cc1cccnc1)Cc1cccn1-c1ccc(F)cc1F [CBK283042],90.4%
16,O=C(NCCO)C1(Cc2ccc(-c3ccccc3)cc2)CCNC1 (centres unmarked) [CBK283043],83.9%
17,Cn1ccc(C2CCCCCN2C(=O)Cc2cccs2)n1 (centres unmarked) [CBK283047],86.5%
18,CC(C)c1cc(C(=O)N2CCCCCC2c2ccn(C)n2)no1 (centres unmarked) [CBK283048],85.3%
19,CCC(=O)N1CCCc2cc(C(O)CN3CCCC(C)C3)ccc21 (centres unmarked) [CBK283049],89.2%
20,CC(C)c1cc(C(=O)N2C[C@H](C)N(Cc3ccco3)C[C@@H]2C)on1 [CBK283053],90.9%
21,CC(C)[C@@H]1C[C@H](C(F)(F)F)n2nc(C3CCCNC3)cc2N1 (some centres unmarked) [CBK283056],98.6%
22,O=C(c1ccccc1)N1CCCC(c2nnc(-c3cccs3)o2)C1 (centres unmarked) [CBK283059],103%
23,CCC(=O)N1CCCC(c2nnc(-c3cccs3)o2)C1 (centres unmarked) [CBK283060],92%
24,CCc1cc(CNS(=O)(=O)c2cc(C)ccc2F)on1 [CBK283064],108%

row,Compound,"viability at 28.5 h, 10 µM"
1,CC(C)c1cc(C(=O)NC2CCOc3ccccc32)no1 (centres unmarked) [CBK283065],93.9%
2,Cc1n[nH]c(C)c1CNC(=O)c1cccc2c(C)c(C)[nH]c12 [CBK283068],88.9%
3,Cc1cc(S(=O)(=O)Nc2ccnn2C(C)C)ccc1F [CBK283069],96.9%
4,Cc1nc(C)c(C(=O)NCCN2CC(C)CC(C)C2)s1 (centres unmarked) [CBK283071],95.1%
5,COCc1ccc(C(=O)N2CCC(c3cc4cnccc4[nH]3)CC2)o1 [CBK283073],90.9%
6,Cc1c(C(=O)NC(C)c2cc3ccccc3o2)cnn1C (centres unmarked) [CBK283074],99.3%
7,Cc1ccc2oc(CN3CCn4cnnc4C3)c(C)c2c1 [CBK283075],109%
8,Cc1nn(C)c(C)c1C(C)NC(=O)C1CC2C=CC1C21CC1 (centres unmarked) [CBK283076],81.5%
9,Cc1cc2cc(NC(=O)CCc3c(C)n[nH]c3C)ccc2o1 [CBK283077],84.2%
10,Cc1nn(C)c(C)c1CN(C)C(=O)CCC1CCCO1 (centres unmarked) [CBK283078],99.7%
11,Cc1cc(C)n(CC(=O)Nc2ccccc2-n2ccnc2)n1 [CBK283079],101%
12,CN1CCC[C@@H]2[C@H]1[C@@H](c1ccc(F)cc1)CN2C(=O)c1ccccn1 [CBK283081],103%
13,CC(=O)N1CCC(O)(Cn2c(C3CC3)cc3cccnc32)CC1 [CBK283082],111%
14,CN(C)CCN(Cc1ccncc1)Cc1ccc(F)cc1F [CBK283094],98.2%
15,CN(C)CCN(Cc1ccncc1)Cc1cc(F)ccc1F [CBK283095],88%
16,CN(C)CCN(Cc1ccncc1)Cc1cc(F)cc(F)c1 [CBK283096],94.9%
17,Fc1ccccc1CN(CCCn1ccnc1)Cc1cccnc1 [CBK283099],90.4%
18,Cc1ccc(CN(CCCn2ccnc2)Cc2ccncc2)o1 [CBK283101],108%
19,Cc1ccc(CN(CCCn2ccnc2)Cc2ccccn2)o1 [CBK283102],106%
20,Cc1ccc(CN(CCCn2ccnc2)Cc2nc3ccccc3[nH]2)o1 [CBK283103],90.9%
21,CCS(=O)(=O)N1CC2CCCC(O)(c3cccc(F)c3)C2C1 (centres unmarked) [CBK283108],99.3%
22,Cc1ccc(CN(CCCn2ccnc2)Cc2cnn(C)c2)s1 [CBK283113],97.3%
23,CCNCc1cc2c(C)nn(-c3ccc(F)cc3)c2[nH]c1=O [CBK283118],107%
